Test system: MDA-MB-231 cells
Test: Cell proliferation assay (CellTiter-Glo), MDA-MB-231
Format: cell-based
Conditions: Homo sapiens, MDA-MB-231, 72 h, 72 h treatment, Celltiter-Glo luminescence
Description: Example 238: Cell Proliferation Assay
MDA-MB-231 and EVSA-T cells (10000 cells/well) were plated onto 96-well plates (Corning, Cat #3917) in 95 μL of medium (RPMI-1640 containing 10% FBS and MEM containing 10% FBS, respectively). Compounds with various concentrations ([…]) were added to the wells. After treatment for 72 h, 30 μL of Celltiter-Glo reagent (Promega, Cat #G7573) was added and incubated at room temperature for 15 min, then the luminescent signal was determined using a microplate reader (Biotek, SynergyH1). The inhibitor dose-response curves were analyzed using normalized IC50 regression curve fitting with control based normalization.

Row | IC50 [nM] | SMILES
1 | 680 | C[C@@H]1CN(CC(=O)N2CC(C)(C)c3c2cc(N2CCN(C)c4cc(F)ccc42)c2ncnn32)[C@@H](CN2CCOC[C@H]2C)CN1 [Compound 194, 1-(4-(6-fluoro-4-methyl-3,4-dihydroquinoxalin-1(2H)-yl)-8,8-dimethyl-7,8-dihydro-6H-pyrrolo[2,3-e][1,2,4]triazolo[1,5-a]pyridin-6-yl)-2-((2R,5R)-5-methyl-2-(((R)-3-methylmorpholino)methyl)piperazin-1-yl)ethan-1-one]
2 | 7080 | C[C@@H]1CN(CC(=O)N2CC(C)(C)c3c2cc(Cc2ccc(F)cc2)c2ncnn32)[C@@H](CN2CCN(C)C(=O)[C@H]2C)CN1 [Compound 205, (R)-4-(((2R,5R)-1-(2-(4-(4-fluorobenzyl)-8,8-dimethyl-7,8-dihydro-6H-pyrrolo[2,3-e][1,2,4]triazolo[1,5-a]pyridin-6-yl)-2-oxoethyl)-5-methylpiperazin-2-yl)methyl)-1,3-dimethylpiperazin-2-one]
3 | 41 | C[C@@H]1CN(CC(=O)N2CC(C)(C)c3c2cc(Cc2ccc(F)cc2)c2nn(C4CNC4)c(=O)n32)[C@@H](CN2CCOC[C@H]2C)CN1 [Compound 249, 2-(azetidin-3-yl)-4-(4-fluorobenzyl)-8,8-dimethyl-6-(2-((2R,5R)-5-methyl-2-(((R)-3-methylmorpholino)methyl)piperazin-1-yl)acetyl)-2,6,7,8-tetrahydro-1H-pyrrolo[2,3-e][1,2,4]triazolo[4,3-a]pyridin-1-one]
4 | 230 | Cc1nccn1C[C@H]1CN[C@H](C)CN1CC(=O)N1CC(C)(C)c2c1cc(Cc1ccc(F)cc1)c1nc(C(F)(F)F)cn21 [Compound 186, 1-(4-(4-fluorobenzyl)-8,8-dimethyl-2-(trifluoromethyl)-7,8-dihydro-6H-imidazo[1,2-a]pyrrolo[2,3-e]pyridin-6-yl)-2-((2R,5R)-5-methyl-2-((2-methyl-1H-imidazol-1-yl)methyl)piperazin-1-yl)ethan-1-one]
5 | 320 | C[C@@H]1CN(CC(=O)N2CC(C)(C)c3c2cc(Cc2ccc(F)cc2)n2cnnc32)[C@@H](CN2CCOC[C@H]2C)CN1 [Example 23, 1-(5-(4-fluorobenzyl)-9,9-dimethyl-8,9-dihydro-7H-pyrrolo[3,2-c][1,2,4]triazolo[4,3-a]pyridin-7-yl)-2-((2R,5R)-5-methyl-2-(((R)-3-methylmorpholino)methyl)piperazin-1-yl)ethan-1-one]
6 | 50 | C[C@@H]1CN(CC(=O)N2CC(C)(C)c3c2cc(Cc2ccc(F)cc2)c2cnc(C4CCC4)n32)[C@@H](CN2CCOC[C@H]2C)CN1 [Example 6, 1-(1-cyclobutyl-4-(4-fluorobenzyl)-8,8-dimethyl-7,8-dihydro-6H-imidazo[1,5-a]pyrrolo[2,3-e]pyridin-6-yl)-2-((2R,5R)-5-methyl-2-(((R)-3-methylmorpholino)methyl)piperazin-1-yl)ethan-1-one]

Second part, the compound before the results:

Row | SMILES | IC50 [nM]
7 | Cc1nc(C)n2c3c(cc(Cc4ccc(F)cc4)c12)N(C(=O)CN1C[C@@H](C)NC[C@@H]1CN1CCOC[C@H]1C)CC3(C)C [Compound 124, 1-(4-(4-fluorobenzyl)-1,3,8,8-tetramethyl-7,8-dihydro-6H-imidazo[1,5-a]pyrrolo[2,3-e]pyridin-6-yl)-2-((2R,5R)-5-methyl-2-(((R)-3-methylmorpholino)methyl)piperazin-1-yl)ethan-1-one] | 290
8 | Cc1nc(C)c(Cc2cc3c(n4ncnc24)C(C)(C)CN3C(=O)CN2C[C@@H](C)NC[C@@H]2CN2CCOC[C@H]2C)s1 [Compound 158, 1-(4-((2,4-dimethylthiazol-5-yl)methyl)-8,8-dimethyl-7,8-dihydro-6H-pyrrolo[2,3-e][1,2,4]triazolo[1,5-a]pyridin-6-yl)-2-((2R,5R)-5-methyl-2-(((R)-3-methylmorpholino)methyl)piperazin-1-yl)ethan-1-one] | 720
9 | C[C@@H]1CN(CC(=O)N2CC(C)(C)c3c2cc(Cc2ccc(F)cc2)c2nc(=O)[nH]n32)[C@@H](CN2CCOC[C@H]2C)CN1 [Compound 131, 4-(4-fluorobenzyl)-8,8-dimethyl-6-(2-((2R,5R)-5-methyl-2-(((R)-3-methylmorpholino)methyl)piperazin-1-yl)acetyl)-7,8-dihydro-1H-pyrrolo[2,3-e][1,2,4]triazolo[1,5-a]pyridin-2(6H)-one] | 2740
10 | C[C@@H]1CN(CC(=O)N2CC(C)(C)c3c2cc(Cc2ccc(F)cc2)c2nc(C(F)(F)F)cn32)[C@@H](CN2[C@H](C)COC[C@@H]2C)CN1 [Compound 173, 2-((2R,5R)-2-(((3S,5R)-3,5-dimethylmorpholino)methyl)-5-methylpiperazin-1-yl)-1-(4-(4-fluorobenzyl)-8,8-dimethyl-2-(trifluoromethyl)-7,8-dihydro-6H-imidazo[1,2-a]pyrrolo[2,3-e]pyridin-6-yl)ethan-1-one] | 530
11 | C[C@@H]1CN(CC(=O)N2CC(C)(C)c3c2cc(Cc2ccc(F)cc2)c2nc(N4CC(C)(O)C4)nn32)[C@@H](CN2CCOC[C@H]2C)CN1 [Compound 170, 1-(4-(4-fluorobenzyl)-2-(3-hydroxy-3-methylazetidin-1-yl)-8,8-dimethyl-7,8-dihydro-6H-pyrrolo[2,3-e][1,2,4]triazolo[1,5-a]pyridin-6-yl)-2-((2R,5R)-5-methyl-2-(((R)-3-methylmorpholino)methyl)piperazin-1-yl)ethan-1-one] | 99
12 | CC(=O)N1CCN(C[C@H]2CN[C@H](C)CN2CC(=O)N2CC(C)(C)c3c2cc(Cc2ccc(F)cc2)c2nc(C(F)(F)F)cn32)[C@H](C)C1 [Compound 174, 2-((2R,5R)-2-(((R)-4-acetyl-2-methylpiperazin-1-yl)methy 1)-5-methylpiperazin-1-yl)-1-(4-(4-fluorobenzyl)-8,8-dimethyl-2-(trifluoromethyl)-7,8-dihydro-6H-imidazo[1,2-a]pyrrolo[2,3-e]pyridin-6-yl)ethan-1-one] | 450
13 | C[C@@H]1CN(CC(=O)N2CC(C)(C)c3c2cc(N2CCOc4cc(F)ccc42)c2ncnn32)[C@@H](CN2CCOC[C@H]2C)CN1 [Compound 169, 1-(4-(7-fluoro-2,3-dihydro-4H-benzo[b][1,4]oxazin-4-yl)-8,8-dimethyl-7,8-dihydro-6H-pyrrolo[2,3-e][1,2,4]triazolo[1,5-a]pyridin-6-yl)-2-((2R,5R)-5-methyl-2-(((R)-3-methylmorpholino)methyl)piperazin-1-yl)ethan-1-one] | 980
14 | C[C@@H]1CN(CC(=O)N2CC(C)(C)c3c2cc(Cc2ccc(F)cc2)c2nnc(C(N)=O)n32)[C@@H](CN2CCOC[C@H]2C)CN1 [Compound 145, 4-(4-fluorobenzyl)-8,8-dimethyl-6-(2-((2R,5R)-5-methyl-2-(((R)-3-methylmorpholino)methyl)piperazin-1-yl)acetyl)-7,8-dihydro-6H-pyrrolo[2,3-e][1,2,4]triazolo[4,3-a]pyridine-1-carboxamide] | 450
15 | C[C@@H]1CN(CC(=O)N2CC(C)(C)c3c2cc(Cc2ccc(F)cc2)c2nn(CC(C)(C)O)c(=O)n32)[C@@H](CN2C3CCC2COC3)CN1 [Compound 276, 6-(2-((2R,5R)-2-((3-oxa-8-azabicyclo[3.2.1]octan-8-yl)methyl)-5-methylpiperazin-1-yl)acetyl)-4-(4-fluorobenzyl)-2-(2-hydroxy-2-methylpropyl)-8,8-dimethyl-2,6,7,8-tetrahydro-1H-pyrrolo[2,3-e][1,2,4]triazolo[4,3-a]pyridin-1-one] | 390
